“And” between values parts separate entries of the source, which are not always exact repeats. Equal values may be shown once. Toxic doses and inconclusive results are not listed. How the source made its calls: active means survival T/C of 150% or more; inactive means T/C below 125% in these data.
Test system: P388 leukemia ip, CD2F1 mice, survival T/C
Assay: NCI In Vivo Anticancer Drug Screen. Data for tumor model P388 Leukemia (intraperitoneal) in CD2F1 (CDF1) mice
Conditions: endpoint: median survival time, higher = longer survival
Summary of the method: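 Mice carrying the transplanted tumor received test compound or vehicle. Survival was recorded in each group, and the value is the treated-group measurement divided by that of the vehicle-treated control group.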

[1] = dose: 50.0 mg/kg/injection, schedule: Q01DX005 (ip), vehicle: Klucel (hydroxypropylcellulose) (HPC)
[2] = dose: 100.0 mg/kg/injection, schedule: Q01DX005 (ip), vehicle: Klucel (hydroxypropylcellulose) (HPC)
[3] = dose: 200.0 mg/kg/injection, schedule: Q01DX005 (ip), vehicle: Klucel (hydroxypropylcellulose) (HPC)
[4] = dose: 25.0 mg/kg/injection, schedule: Q01DX005 (ip), vehicle: Klucel (hydroxypropylcellulose) (HPC)

Measured: T/C

C#CCSC1=NS(=O)(=O)c2ccccc21
inactive: dose: 7.5 mg/kg/injection, schedule: Q01DX005 (ip), vehicle: saline with Tween-80 115 % of control | dose: 15.0 mg/kg/injection, schedule: Q01DX005 (ip), vehicle: saline with Tween-80 115 % of control | dose: 30.0 mg/kg/injection, schedule: Q01DX005 (ip), vehicle: saline with Tween-80 98 % of control and 115 % of control | dose: 60.0 mg/kg/injection, schedule: Q01DX005 (ip), vehicle: saline with Tween-80 106 % of control

CC(=NCCCCN=C(C)c1cc(C)ccc1O)c1cc(C)ccc1O
inactive: [1] 98 % of control | [2] 100 % of control | [3] 103 % of control

CC1=CC23C(=O)[C@@H](C=C(COC(=O)c4ccccc4)[C@@H](O)[C@]2(O)[C@H]1OC(=O)c1ccccc1)[C@H]1[C@@H](C[C@H]3C)C1(C)C
inactive: dose: 12.5 micrograms/kg/injection, schedule: Q01DX009 (ip), vehicle: saline with Tween-80 113 % of control | dose: 25.0 micrograms/kg/injection, schedule: Q01DX009 (ip), vehicle: saline with Tween-80 102 % of control | dose: 50.0 micrograms/kg/injection, schedule: Q01DX009 (ip), vehicle: saline with Tween-80 106 % of control | dose: 100.0 micrograms/kg/injection, schedule: Q01DX009 (ip), vehicle: saline with Tween-80 119 % of control | dose: 200.0 micrograms/kg/injection, schedule: Q01DX009 (ip), vehicle: saline with Tween-80 113 % of control | dose: 281.0 micrograms/kg/injection, schedule: Q01DX009 (ip), vehicle: saline + alcohol 108 % of control | dose: 468.0 micrograms/kg/injection, schedule: Q01DX009 (ip), vehicle: saline + alcohol 89 % of control | dose: 780.0 micrograms/kg/injection, schedule: Q01DX009 (ip), vehicle: saline + alcohol 89 % of control

O=c1c2c([nH]c3c1ccc1c(=O)c4c([nH]c13)CCCC4)CCCC2
inactive: dose: 50.0 mg/kg/injection, schedule: Q01DX009 (ip), vehicle: saline with Tween-80 98 % of control | dose: 100.0 mg/kg/injection, schedule: Q01DX009 (ip), vehicle: saline with Tween-80 96 % of control | dose: 200.0 mg/kg/injection, schedule: Q01DX009 (ip), vehicle: saline with Tween-80 94 % of control

C/C(=N\NC(=S)N1CCCCCC1)c1nccnc1C
inactive: [4] 112 % of control | [1] 122 % of control

CC(C)COC(=O)NC1c2ccccc2Oc2ccccc21
inactive: dose: 50.0 mg/kg/injection, schedule: Q01DX005 (ip), vehicle: saline with Tween-80 95 % of control | dose: 100.0 mg/kg/injection, schedule: Q01DX005 (ip), vehicle: saline with Tween-80 93 % of control | dose: 200.0 mg/kg/injection, schedule: Q01DX005 (ip), vehicle: saline with Tween-80 89 % of control

O=c1[nH]ccc2nc(-c3ccccc3)cn12
inactive: dose: 100.0 mg/kg/injection, schedule: Q04DX003 (ip), vehicle: Klucel (hydroxypropylcellulose) (HPC) 106 % of control | dose: 200.0 mg/kg/injection, schedule: Q04DX003 (ip), vehicle: Klucel (hydroxypropylcellulose) (HPC) 104 % of control | dose: 400.0 mg/kg/injection, schedule: Q04DX003 (ip), vehicle: Klucel (hydroxypropylcellulose) (HPC) 105 % of control

CC1=C2C3OC(=O)C(C)C3CCC2(C)CCC1=O (centres undefined)
inactive: dose: 12.5 mg/kg/injection, schedule: Q04DX002 (ip), vehicle: saline with Tween-80 107 % of control | dose: 25.0 mg/kg/injection, schedule: Q04DX002 (ip), vehicle: saline with Tween-80 91 % of control | dose: 50.0 mg/kg/injection, schedule: Q04DX002 (ip), vehicle: saline with Tween-80 91 % of control

O=[N+]([O-])c1ccc(CN2CCC(C(=S)Nc3ccccc3)=C2c2ccccc2)cc1
inactive: dose: 6.25 mg/kg/injection, schedule: Q01DX005 (ip), vehicle: Klucel (hydroxypropylcellulose) (HPC) 92 % of control | dose: 12.5 mg/kg/injection, schedule: Q01DX005 (ip), vehicle: Klucel (hydroxypropylcellulose) (HPC) 90 % of control | [4] 87 % of control | [2] 92 % of control | [3] 87 % of control

From PubChem BioAssay AID330 (DTP/NCI, 2004)
